Reference: patent US20220167618A1, “PESTICIDALLY ACTIVE AZOLE-AMIDE COMPOUNDS” (SYNGENTA CROP PROTECTION AG, priority 2019, published 2022)

Experiments:
Assay type in all cases: in vivo
[1] = system: Diabrotica balteata (Corn Root Worm); assay: Example B1: Diabrotica balteata (corn root worm), sprayed maize sprouts; conditions: 96 h, application rate 200 ppm, L2 larvae, 4 days after infestation, read-out: control in at least one of the two categories (mortality or growth inhibition)
Experimental: Example B1: Diabrotica balteata (Corn Root Worm)
Maize sprouts placed onto an agar layer in 24-well microtiter plates were treated with aqueous test solutions prepared from 10′000 ppm DMSO stock solutions by spraying. After drying, the plates were infested with L2 larvae (6 to 10 per well). The samples were assessed for mortality and growth inhibition in comparison to untreated samples 4 days after infestation.

[2] = system: Chilo suppressalis (Striped Rice Stemborer); assay: Example B4: Chilo suppressalis (striped rice stemborer), artificial diet; conditions: 144 h, application rate 200 ppm, L2 larvae, 6 days after infestation, read-out: control in at least one of the three categories (mortality, anti-feedant or growth inhibition)
Method in brief: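 Artificial diet was treated with aqueous dilutions made from 10'000 ppm DMSO stocks, dried, then infested with L2 larvae at 6–8 per well. Mortality, antifeedant effect and growth inhibition were assessed against untreated samples 6 days after infestation.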

[3] = system: Plutella xylostella (Diamond Back Moth); assay: Example B5: Plutella xylostella (diamond back moth), artificial diet, 24-well; conditions: 192 h, application rate 200 ppm, eggs, 8 days after infestation, read-out: control in at least one of the two categories (mortality or growth inhibition)
Experimental: Example B5: Plutella xylostella (Diamond Back Moth)
24-well microtiter plates with artificial diet were treated with aqueous test solutions prepared from 10′000 ppm DMSO stock solutions by pipetting. After drying, Plutella eggs were pipetted through a plastic stencil onto a gel blotting paper and the plate was closed with it. The samples were assessed for mortality and growth inhibition in comparison to untreated samples 8 days after infestation.

[4] = system: Myzus persicae (Green Peach Aphid); assay: Example B8: Myzus persicae (green peach aphid), intrinsic activity; conditions: 120 h, test rate 12 ppm, 5 days after infestation
Text: Example B8: Myzus persicae (Green Peach Aphid): Intrinsic Activity
Test compounds prepared from 10′000 ppm DMSO stock solutions were applied by pipette into 24-well microtiter plates and mixed with sucrose solution. The plates were closed with a stretched Parafilm. A plastic stencil with 24 holes was placed onto the plate and infested pea seedlings were placed directly on the Parafilm. The infested plate was closed with a gel blotting paper and another plastic stencil and then turned upside down. The samples were assessed for mortality 5 days after infestation.

[5] = system: Spodoptera littoralis (Egyptian Cotton Leaf Worm); assay: Example B9: Spodoptera littoralis (Egyptian cotton leaf worm), sprayed cotton leaf discs; conditions: foliar, 72 h, application rate 200 ppm, L1 larvae, 3 days after infestation, read-out: control in at least one of the three categories (mortality, anto-feedant or growth inhibition)
[6] = system: Spodoptera littoralis (Egyptian Cotton Leaf Worm); assay: Example B10: Spodoptera littoralis (Egyptian cotton leaf worm), uptake via lettuce roots from agar; conditions: 144 h, test rate 12.5 ppm, eggs, 6 days after infestation, read-out: control in at least one of the three categories (mortality, anti-feedant, or growth inhibition)
Text: Example B10: Spodoptera Littoralis (Egyptian Cotton Leaf Worm)
Test compounds were applied by pipette from 10′000 ppm DMSO stock solutions into 24-well plates and mixed with agar. Lettuce seeds were placed onto the agar and the multi well plate was closed by another plate which contained also agar. After 7 days the compound was absorbed by the roots and the lettuce grew into the lid plate. The lettuce leaves were then cut off into the lid plate. Spodoptera eggs were pipetted through a plastic stencil onto a humid gel blotting paper and the lid plate was closed with it. The samples were assessed for mortality, anti-feedant effect and growth inhibition in comparison to untreated samples 6 days after infestation.

[7] = system: Plutella xylostella (Diamondback Moth); assay: Example B13: Plutella xylostella (diamondback moth), artificial diet, 96-well; conditions: 216 h, application rate 500 ppm, eggs/L1 larvae, 9 days after infestation
Experimental: Example B13: Plutella xylostella (Diamondback Moth)
96-well microtiter plates containing artificial diet were treated with aqueous test solutions, prepared from 10′000 ppm DMSO stock solutions, by a liquid handling robot. After drying, eggs (˜30 per well) were infested onto a netted lid which was suspended above the diet. The eggs hatch and L1 larvae move down to the diet. The samples were assessed for mortality 9 days after infestation.

CC(NC(=O)c1cc(C(F)(F)F)cc(C(C)(C)C#N)c1)c1nc(Br)nn1-c1ncc(OC(F)F)cn1 (stereo not shown) [Compound P35, N-[1-[5-bromo-2-[5-(difluoromethoxy)pyrimidin-2-yl]-1,2,4-triazol-3-yl]ethyl]-3-(1-cyano-1-methyl-ethyl)-5-(trifluoromethyl)benzamide]
≥ 80%: percent control (mortality or growth inhibition) at 200 ppm [1] | percent control (mortality, anti-feedant or growth inhibition) at 200 ppm [2] | percent control (mortality or growth inhibition) at 200 ppm [3] | mortality at 12 ppm [4] | percent control (mortality, anti-feedant or growth inhibition) at 200 ppm [5] | percent control (mortality, anti-feedant or growth inhibition) at 12.5 ppm [6] | mortality at 500 ppm [7]
